# Earlier results in patent US20260355183A1, “METHODS OF TREATING HEPATIC-ONLY METASTATIC UVEAL MELANOMA” (IDEAYA BIOSCIENCES, INC., priority 2023, published 2026).
# Experiments:
# [1] = test system: ocular melanoma liver metastases; conditions: in vivo
# [2] = test system: certain PKC isototypes; conditions: background statement
# [3] = test system: uveal melanoma cells harboring GNAQ mutations; conditions: by targeting PKC/ERK1/2 and PKC/NF-xB pathways; X. Wu et al., Mol. Cancer Ther. 11, 1905-1914, 2012
Structure (SMILES),DCR [1],activity against PKC isotypes [2],inhibition of growth of uveal melanoma cells harboring GNAQ mutations [3]
N[C@@H](Cc1ccc(N(CCCl)CCCl)cc1)C(=O)O [melphalan],76.3%,–,–
CN1CCN(c2nc(C3=C(c4c[nH]c5ccccc45)C(=O)NC3=O)c3ccccc3n2)CC1 [sotrastaurin],–,activity against certain PKC isototypes,selectively inhibit the growth of uveal melanoma cells harboring GNAQ mutations
